Data: patent US7604975B2, “Glycosylated LPXTGases and uses thereof” (priority 2002, dated 2009)
Read-outs that look alike come from different tables or passages of the source.

Experiments:
LPXTGase [1] = assay type: biochemical, Streptococcus pyogenes; settings: for peptide cleaved, cpm: 40 mM Tris-HCl pH 7.6, 0.1% Brij 35, control 41,530 cpm
Procedure: Enzyme Assay Method: Aliquots (10 μl) were removed from the column fractions and added to 1.5 ml Microfuge tubes. To each tube was added 30 μl of 40 mM Tris-HCl buffer, pH 7.6, containing 0.1% Brij 35, followed by a 10 μl suspension of bead-bound LPXTG-peptide substrate (0.5 to 0.8 μg, 100,000 to 200,000 cpm). The reaction mixture was incubated with vigorous shaking for 60 min at 37° C. After this time, 100 μl of water was added to each tube, and after vortex mixing, the mixture was centrifuged at 10,000 rpm for 5 min to pellet the beads. 100 μl of the supernatant was withdrawn and radioactivity was counted with a gamma counter.
The LPXTGase was exposed to a variety of salts and its activity tested for cleavage of the LPXTG (SEQ ID NO:1)-containing peptide.

LPXTGase [2] = experiment: Periodate treatment of LPXTGase, enzyme activity measured; assay type: biochemical, Streptococcus pyogenes; settings: 5 mM periodate, 20 mM phosphate buffer pH 6, 4 hrs at 4° C.
Procedure: Carbohydrate composition of LPXTGase. The carbohydrate composition of purified LPXTGase was determined by the Rockefeller University Analytical Service Laboratory using a Waters 490 HPLC system. […] It seemed plausible that the charged amino acids of the enzyme are internalized and the hydrophobic amino acids are located on the exterior surface in view of the fact that the enzyme is likely to be associated with the cell membrane. […] To test this, the enzyme was incubated with 5 mM of periodate in 20 mM phosphate buffer, pH 6, for 4 hrs at 4° C., and enzyme activity was measured.

trypsin = experiment: Periodate treatment of trypsin, enzyme activity measured; assay type: biochemical; settings: identical manner (5 mM periodate, pH 6, 4 hrs at 4° C.)
[3] = 100 mM salt, one hour at 37° C.

| SMILES | % of control (LPXTGase activity) (LPXTGase [1]) | peptide cleaved, cpm (LPXTGase [1]; 20 mM salt, one hour at 37° C.) | peptide cleaved, cpm (LPXTGase [1]; [3]) | other results |
| --- | --- | --- | --- | --- |
| [Ca+2].[Cl-].[Cl-] [Calcium chloride] | 23% | 9,706 cpm | – | – |
| [Cl-].[Cl-].[Mg+2] [Magnesium chloride] | 20% | 8,615 cpm | – | – |
| O=C(O)CN(CCN(CC(=O)O)CC(=O)O)CC(=O)O [EDTA] | 5.2% | 2,147 cpm | – | – |
| [Cl-].[Na+] [Sodium chloride] | – | – | 6,720 cpm | % of control (LPXTGase activity) (LPXTGase [1]; [3]): 16% |
| O=S(=O)([O-])[O-].[Na+].[Na+] [Sodium sulfate] | 57% | 23,454 cpm | – | – |
| [O-][I+3]([O-])([O-])O [periodate] | – | – | – | effect of periodate treatment on LPXTGase enzyme activity (LPXTGase [2]): nearly completely abolished the enzyme activity; effect of periodate treatment on trypsin enzyme activity (trypsin): no effect |
| Cl.NO [Hydroxylamine-HCl] | 27% | – | 11,200 cpm | effect on LPXTGase activity (general statement) (LPXTGase [1]): inhibited |
| Cl.Cl.NCCCCN [Putrescene chloride] | – | 8,710 cpm | – | % of control (LPXTGase activity) (LPXTGase [1]; 20 mM salt, one hour at 37° C.): 21% |
| [Cl-].[K+] [Potassium chloride] | – | – | 8,608 cpm | % of control (LPXTGase activity) (LPXTGase [1]; [3]): 20% |
| O=P(O)(O)O [Sodium phosphate] | 49% | 20,646 cpm | – | – |
